From US10883992B2, “Universal kinase substrates and methods of use thereof” (Regents of the University of Minnesota, priority 2018, dated 2021)
“Also recorded” adds a separate entry of the source. Ends that are not written are not given here. Peptide text beside a SMILES is read from it. * marks the point of attachment. Biotin = O=C1N[C@H]2[C@H](CS[C@H]2CCCCC(=O)*)N1

Assays:
Format in all cases: biochemical
[1] = biological target: T1, BTK (Homo sapiens, UniProt Q06187); assay: Michaelis-Menten kinetic analysis of substrate peptides, [γ-33P]ATP radiolabel incorporation; details: for kcat: mean ± sem of fits
T1 construct: GST; made in house; host or cells: HEK293T cells
T1 sequence (Q06187 whole entry, species assumed): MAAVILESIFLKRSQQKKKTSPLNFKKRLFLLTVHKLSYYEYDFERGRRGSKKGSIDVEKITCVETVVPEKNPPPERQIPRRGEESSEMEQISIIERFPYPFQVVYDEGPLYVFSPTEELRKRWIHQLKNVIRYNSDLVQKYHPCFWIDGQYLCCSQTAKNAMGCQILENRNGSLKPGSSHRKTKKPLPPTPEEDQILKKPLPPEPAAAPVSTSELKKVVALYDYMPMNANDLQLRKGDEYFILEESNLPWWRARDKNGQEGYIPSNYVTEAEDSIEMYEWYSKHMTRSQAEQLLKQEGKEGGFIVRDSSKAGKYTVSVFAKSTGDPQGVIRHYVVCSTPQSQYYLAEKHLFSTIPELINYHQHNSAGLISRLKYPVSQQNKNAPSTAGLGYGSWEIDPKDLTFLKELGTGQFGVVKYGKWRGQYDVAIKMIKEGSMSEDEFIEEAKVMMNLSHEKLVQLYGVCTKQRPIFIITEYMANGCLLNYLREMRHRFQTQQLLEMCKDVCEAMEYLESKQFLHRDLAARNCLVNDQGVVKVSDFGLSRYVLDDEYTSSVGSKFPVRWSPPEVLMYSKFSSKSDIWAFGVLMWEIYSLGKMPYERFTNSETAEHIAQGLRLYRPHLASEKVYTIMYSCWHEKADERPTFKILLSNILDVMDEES
Description: (§1) The mammalian expression vector to produce the intracellular portion of human FLT3 fused to GST (GST-FLT3^564-993) was generated by PCR amplifying the encoding sequence and subcloning into the BamHI and NotI sites of pEBG-2T. Mammalian expression vectors to produce BTK, SRC and SYK as GST fusion proteins were previously described. GST-tagged kinases were expressed in HEK293T cells and purified by affinity chromatography using glutathione Sepharose 4B as described (Deng, et al., Journal of Proteome Research 2014, 13, 4339). His6-EGFR^672-998 (“His6” disclosed SEQ ID NO: 25) and His6-ALK^1090-1416 (“His6” disclosed SEQ ID NO: 25) were expressed and purified from Sf9 insect cells as described (Park, et al., Biochemical Journal 2012, 448, 417; Bresler, et al., Science Translational Medicine 2011, 3, 108ra114). Human ABL was purchased from Life Technologies.
(§2) Biotinylated peptides (10 μM final concentration) were arrayed in a 384-well plate in 18 μL reaction buffer (50 mM HEPES, pH 7.5, 150 mM NaCl, 10 mM MgCl2, 1 mM DTT, 0.1% v/v Tween-20). Reactions were initiated by adding […] kinase (to 3-9 ng/μL) and [γ-^33P] ATP (to 50 μM, 0.025 μCi/μL) in reaction buffer. Plates were sealed and incubated at 30° C. for 30 min, and then 2 μL aliquots were transferred to streptavidin membrane (Promega SAM2 biotin capture membrane) using a pin-tool. […] Incorporation of radiolabel was quantified by phosphor imaging using QuantityOne software (Bio-Rad). After background correction, data were normalized such that the peptide with the greatest signal was 100%. Normalized data from at least two separate experiments were averaged and converted to heatmaps using Excel (Microsoft).
(§3) Final kinase concentrations were as follows: 0.3 ng/μL for ABL, BTK, SRC and SYK; 1.5 ng/μL for FLT3; 2.7 ng/μL for ALK and EGFR. At various incubation times (10, 20 and 30 min), 2 μL aliquots were transferred using a pin tool to P81 phosphocellulose paper (Reaction Biology), which was washed three times in 75 mM H3PO4, briefly washed in acetone and allowed to dry before exposing to a phosphor screen. Incorporation of radiolabel into peptides was quantified as above. After background correction, initial rates of reaction were determined by linear regression and fit to the Michaelis-Menten equation using Prism (GraphPad). […] Reported kinetic parameters are the average of three separate experiments except for FLT3 (two experiments).

[2] = biological target: T2, Abl (Homo sapiens, UniProt P00519); assay: as above
T2 construct: purchased Life Technologies
T2 sequence (P00519 whole entry): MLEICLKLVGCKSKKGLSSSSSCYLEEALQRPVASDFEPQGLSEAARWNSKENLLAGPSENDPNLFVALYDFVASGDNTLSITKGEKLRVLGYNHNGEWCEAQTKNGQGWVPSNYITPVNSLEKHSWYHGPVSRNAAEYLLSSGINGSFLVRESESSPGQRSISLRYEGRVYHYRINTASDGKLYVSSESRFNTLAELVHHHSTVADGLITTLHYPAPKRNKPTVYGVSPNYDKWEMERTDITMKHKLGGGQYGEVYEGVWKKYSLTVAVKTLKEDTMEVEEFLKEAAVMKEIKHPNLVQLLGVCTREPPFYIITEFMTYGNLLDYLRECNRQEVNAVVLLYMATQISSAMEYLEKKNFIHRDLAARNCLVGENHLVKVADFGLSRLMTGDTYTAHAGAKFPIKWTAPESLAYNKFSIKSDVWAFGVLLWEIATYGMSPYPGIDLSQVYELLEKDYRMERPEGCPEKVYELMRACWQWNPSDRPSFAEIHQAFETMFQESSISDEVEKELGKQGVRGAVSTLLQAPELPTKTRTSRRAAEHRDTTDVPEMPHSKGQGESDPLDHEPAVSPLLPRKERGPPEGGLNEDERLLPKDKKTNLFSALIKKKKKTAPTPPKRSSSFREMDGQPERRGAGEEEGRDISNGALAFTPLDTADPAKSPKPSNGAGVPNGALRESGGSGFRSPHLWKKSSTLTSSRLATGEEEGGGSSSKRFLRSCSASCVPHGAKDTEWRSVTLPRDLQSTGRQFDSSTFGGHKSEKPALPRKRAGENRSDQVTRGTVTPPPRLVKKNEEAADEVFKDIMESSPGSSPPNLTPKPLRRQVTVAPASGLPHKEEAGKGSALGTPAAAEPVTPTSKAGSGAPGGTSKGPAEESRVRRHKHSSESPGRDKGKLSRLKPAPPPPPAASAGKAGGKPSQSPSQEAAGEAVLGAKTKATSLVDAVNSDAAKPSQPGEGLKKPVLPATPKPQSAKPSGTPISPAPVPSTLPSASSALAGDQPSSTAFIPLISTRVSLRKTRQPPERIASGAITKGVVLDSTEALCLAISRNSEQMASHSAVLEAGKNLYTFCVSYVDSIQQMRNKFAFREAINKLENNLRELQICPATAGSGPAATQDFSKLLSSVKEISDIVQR
Description: as §1, §2, §3

[3] = biological target: T3, Syk (Homo sapiens, UniProt P43405); assay: as above
T3 construct: GST; made in house; host or cells: HEK293T cells
Description: as §1, §2, §3

[4] = biological target: T4, EGFR (His6-EGFR 672-998) (Homo sapiens, UniProt P00533); assay: as above; details: for kcat: lower limit extrapolated from kcat/Km
T4 construct: His6-EGFR^672-998; His6 (N); made in house; host or cells: Sf9 insect cells
Description: as §1, §2, §3

[5] = biological target: T5, ALK (His6-ALK 1090-1416) (Homo sapiens, UniProt Q9UM73); assay: as above; details: for kcat: lower limit extrapolated from kcat/Km
T5 construct: His6-ALK^1090-1416; His6 (N); made in house; host or cells: Sf9 insect cells
T5 sequence (Q9UM73 1090-1416): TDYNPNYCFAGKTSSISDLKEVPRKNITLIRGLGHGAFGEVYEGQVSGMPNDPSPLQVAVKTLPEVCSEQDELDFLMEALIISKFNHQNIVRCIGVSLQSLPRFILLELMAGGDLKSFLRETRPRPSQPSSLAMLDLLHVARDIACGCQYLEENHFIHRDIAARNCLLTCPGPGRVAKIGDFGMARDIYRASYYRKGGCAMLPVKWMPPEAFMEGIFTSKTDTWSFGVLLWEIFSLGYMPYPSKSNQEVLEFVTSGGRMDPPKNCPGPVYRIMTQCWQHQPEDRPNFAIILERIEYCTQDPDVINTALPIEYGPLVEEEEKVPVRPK
Description: as §1, §2, §3

[6] = biological target: T6, FLT3 (GST-FLT3 564-993) (Homo sapiens, UniProt P36888); assay: as above; details: for kcat: mean ± sem of fits
T6 construct: human FLT3 fused to GST (GST-FLT3^564-993); GST (N); made in house; host or cells: HEK293T cells
T6 sequence (P36888 564-993): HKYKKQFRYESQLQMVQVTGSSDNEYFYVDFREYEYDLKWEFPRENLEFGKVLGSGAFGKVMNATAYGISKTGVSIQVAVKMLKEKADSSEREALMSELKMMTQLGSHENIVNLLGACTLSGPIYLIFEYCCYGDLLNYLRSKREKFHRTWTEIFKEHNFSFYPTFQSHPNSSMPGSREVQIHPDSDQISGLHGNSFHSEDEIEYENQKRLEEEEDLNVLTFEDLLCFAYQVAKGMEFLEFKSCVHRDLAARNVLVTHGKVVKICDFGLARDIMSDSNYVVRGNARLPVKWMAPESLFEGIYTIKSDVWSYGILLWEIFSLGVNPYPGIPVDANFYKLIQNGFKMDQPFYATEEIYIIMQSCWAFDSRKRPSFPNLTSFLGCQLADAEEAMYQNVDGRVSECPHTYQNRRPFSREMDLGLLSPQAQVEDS
Description: as §1, §2, §3

[7] = biological target: T7, Src (Homo sapiens, UniProt P12931); assay: as above; details: for kcat: lower limit extrapolated from kcat/Km
T7 construct: GST; made in house; host or cells: HEK293T cells
Description: as §1, §2, §3

[8] = tested on: panel of 15 PTKs; assay: Universal kinase substrate screen of the pilot library, [γ-33P]ATP incorporation; details: biotinylated peptides 10 μM; for phosphorylation by the panel of PTKs: 50 μM ATP, 30° C., 30 min, 15 PTKs; for average phosphorylation across the kinase panel: averaged over 15 PTKs (FIG. 1B)
Description: This pilot library was then subjected to an initial screen to test their phosphorylation by a panel of 15 PTKs that included 12 non-receptor TKs (representing all 10 NRTK families) and 3 receptor TKs (representing 3 RTK families). Pilot peptides were assayed alongside several previously reported substrates that were designed to be specific to individual kinases. Conversion to product was monitored via incorporation of phosphate from [γ-^33P] radiolabeled adenosine triphosphate (ATP). These intensities were normalized to background and visualized as a heat map in FIG. 1. […] By contrast, as previously reported, peptides that had been designed to specifically target individual kinases had more restricted reactivity.
as §2

[9] = peptide 2 relative to peptide 5
[10] = lower limit extrapolated from kcat/Km

Molecule	kcat [1]	2/5 kcat/Km ratio [1, 9]	kcat [2, 10]	2/5 kcat/Km ratio [2, 9]	2/5 kcat/Km ratio [3, 9]	kcat [4]	2/5 kcat/Km ratio [4, 9]	kcat [5]	2/5 kcat/Km ratio [5, 9]	kcat [6]	2/5 kcat/Km ratio [6, 9]	kcat [7]	2/5 kcat/Km ratio [7, 9]	phosphorylation by the panel of PTKs [8]	average phosphorylation across the kinase panel [8]	kcat ([2]; mean ± sem of fits)	kcat [3, 10]
CC[C@H](C)[C@H](NC(=O)[C@@H]1CCCN1C(=O)[C@H](CC(=O)O)NC(=O)[C@@H](N)CCC(=O)O)C(=O)N[C@@H](Cc1ccc(O)cc1)C(=O)N[C@H](C(=O)N[C@H](C(=O)N[C@@H](CC(C)C)C(=O)N[C@@H](CCC(=O)O)C(=O)NCC(=O)NCC(=O)N[C@@H](CCCCNC(=O)CCCC[C@@H]1SC[C@@H]2NC(=O)N[C@@H]21)C(=O)NCC(=O)NCC(N)=O)[C@@H](C)O)C(C)C [Peptide 2] (H-EDPIYVTLEGGK(Biotin)GG-NH2)	0.061 ± 0.019 s⁻¹	0.31 ± 0.01	>4 s⁻¹	0.13 ± 0.01	1.8 ± 0.2	>0.005 s⁻¹	5.8 ± 0.2	>0.02 s⁻¹	1.23 ± 0.02	0.013 ± 0.004 s⁻¹	1.43 ± 0.07	>40 s⁻¹	0.52 ± 0.07	phosphorylated by every PTK tested	highest average rate of phosphorylation across the entire panel of kinases; also recorded: highest phosphorylation averaged across the kinase panel		
DEPIYDTVEGGKbiotinGG (DEPIYDTVEGGK(Biotin)GG) [Peptide 6]														phosphorylated by every PTK tested			
CC[C@H](C)[C@H](NC(=O)[C@H](C)NC(=O)[C@H](CCC(=O)O)NC(=O)[C@@H](N)CC(=O)O)C(=O)N[C@@H](Cc1ccc(O)cc1)C(=O)N[C@@H](C)C(=O)N[C@H](C(=O)N[C@H](C(=O)N[C@@H](C)C(=O)NCC(=O)NCC(=O)N[C@@H](CCCCNC(=O)CCCC[C@@H]1SC[C@@H]2NC(=O)N[C@@H]21)C(=O)NCC(=O)NCC(N)=O)C(C)C)[C@@H](C)O [Peptide 5] (H-DEAIYATVAGGK(Biotin)GG-NH2)	0.26 ± 0.08 s⁻¹					>0.001 s⁻¹		>0.02 s⁻¹		0.014 ± 0.004 s⁻¹		>2 s⁻¹		phosphorylated by every PTK tested	highest average rate of phosphorylation across the entire panel of kinases; also recorded: highest phosphorylation averaged across the kinase panel	16.5 ± 3.5 s⁻¹	>0.1 s⁻¹
